Among the data in patent publication US20240360178A1, “MACROCYCLIC IMMUNOMODULATORS” (Bristol-Myers Squibb Company, priority 2021, published 2024) are IC50 values, retold here.

Positions of bridges follow the written chain, without caps; N, C: chain ends. Non-standard residues stand in square brackets, D forms with d. Residues, ends and D or L forms follow the SMILES beside them. *: point of attachment. Phe(4-COOH) = N[C@@H](Cc1ccc(C(=O)O)cc1)C(=O)O; Bip = N[C@@H](Cc1ccc(-c2ccccc2)cc1)C(=O)O; Phe(3-CN) = N#Cc1cccc(C[C@H](N)C(=O)O)c1; Phe(3-Me) = Cc1cccc(C[C@H](N)C(=O)O)c1; Val(3-OH) = CC(C)(O)[C@H](N)C(=O)O; NMeF = CN[C@@H](Cc1ccccc1)C(=O)O; 4Pal = N[C@@H](Cc1ccncc1)C(=O)O; Cha = N[C@@H](CC1CCCCC1)C(=O)O; Cit = NC(=O)NCCC[C@H](N)C(=O)O; dDab = NCC[C@@H](N)C(=O)O; dPip = O=C(O)[C@H]1CCCCN1; Carboxymethyl = O=C(O)C*; NMeA = CN[C@@H](C)C(=O)O; Nle = CCCC[C@H](N)C(=O)O; Dab = NCC[C@H](N)C(=O)O; NBuGly = CCCCNCC(=O)O

A word on the IC50: it is the concentration that gives 50% inhibition.

For the assay, the target named is T1, human PD-1 (Jurkat-PD-1 cells) / PE-labeled human PD-L1-Ig (Homo sapiens, UniProt Q15116).
T1 construct: expressed in transfected cells; host or cells: Jurkat cell line over-expressing human PD-1
T1 sequence (Q15116 25-288): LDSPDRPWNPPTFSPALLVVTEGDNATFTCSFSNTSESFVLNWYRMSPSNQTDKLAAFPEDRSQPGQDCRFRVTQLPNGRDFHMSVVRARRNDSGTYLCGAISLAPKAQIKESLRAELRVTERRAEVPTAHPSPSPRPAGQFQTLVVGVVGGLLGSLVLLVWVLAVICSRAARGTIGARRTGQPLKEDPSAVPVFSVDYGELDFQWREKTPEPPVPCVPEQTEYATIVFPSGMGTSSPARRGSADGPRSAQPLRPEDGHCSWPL
Briefly: Jurkat-PD-1 Cell Binding High-Content Screening Assay (CBA); Jurkat hPD1-PDL1 assay. The note with it: Jurkat cell line over-expressing human PD-1; PE-labeled PD-L1-Ig 20 nM final; compound incubated 2 hours at 37° C.; read-out: Jurkat HPD1-PDL1 IC50. Put shortly:
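Binding of phycoerythrin-conjugated PD-L1-Ig (20 nM final) to PD-1-overexpressing Jurkat cells was read by high-content imaging. Cells in DMEM/10% FCS were exposed to compound for 2 hours at 37° C before labeled ligand was added.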
For the compound `Cc1cccc(C[C@@H]2NC(=O)[C@H](CC(=O)O)NC(=O)[C@H](Cc3ccc(OCC(=O)O)cc3)NC(=O)[C@H](Cc3ccncc3)NC(=O)CSC[C@@H](C(=O)N[C@@H](CCN)C(N)=O)NC(=O)[C@H](CO)NC(=O)[C@H](C(C)(C)O)NC(=O)[C@H](CC3CCCCC3)NC(=O)[C@H](CCN)NC(=O)[C@H]3CCCN3C(=O)[C@H](C)N(C)C(=O)[C@H](CCCNC(N)=O)NC(=O)[C@H](Cc3ccc(-c4ccccc4)cc3)NC(=O)[C@H](Cc3ccc(OCC(=O)O)cc3)NC2=O)c1` [Example 1180] ({CH2CO}-[4Pal]Y(Carboxymethyl)D[Phe(3-Me)]Y(Carboxymethyl)[Bip][Cit][NMeA][dP][Dab][Cha][Val(3-OH)]SC[Dab]-NH2; thioether N-14), the half-inhibitory concentration (IC50) came out at 20 nM. For `CC(C)C[C@@H]1NC(=O)[C@H](Cc2c[nH]c3ccccc23)NC(=O)[C@H](CC(=O)O)NC(=O)[C@H](Cc2ccc(OCC(=O)O)cc2)NC(=O)[C@H](Cc2ccncc2)NC(=O)CSC[C@@H](C(=O)N[C@@H](CCN)C(N)=O)NC(=O)[C@H](CO)NC(=O)[C@H](C(C)(C)O)NC(=O)[C@H](CC2CCCCC2)NC(=O)[C@H](CCN)NC(=O)[C@H]2CCCN2C(=O)[C@H](C)N(C)C(=O)[C@H](CCCNC(N)=O)NC(=O)[C@H](Cc2ccc(-c3ccccc3)cc2)NC1=O` [Example 1181] ({CH2CO}-[4Pal]Y(Carboxymethyl)DWL[Bip][Cit][NMeA][dP][Dab][Cha][Val(3-OH)]SC[Dab]-NH2; thioether N-14) the value was 100 nM; for `Cc1cccc(C[C@@H]2NC(=O)[C@H](CC(=O)O)NC(=O)[C@H](Cc3cccc(C#N)c3)NC(=O)[C@H](Cc3ccncc3)NC(=O)CSC[C@@H](C(=O)N[C@@H](CCN)C(N)=O)NC(=O)[C@H](CO)NC(=O)[C@H](C(C)(C)O)NC(=O)[C@H](CC3CCCCC3)NC(=O)[C@H](CCN)NC(=O)[C@H]3CCCN3C(=O)[C@H](C)N(C)C(=O)[C@H](Cc3ccc(OCC(=O)O)cc3)NC(=O)[C@H](Cc3ccc(-c4ccccc4)cc3)NC(=O)[C@H](Cc3ccc(OCC(=O)O)cc3)NC2=O)c1` [Example 1182] ({CH2CO}-[4Pal][Phe(3-CN)]D[Phe(3-Me)]Y(Carboxymethyl)[Bip]Y(Carboxymethyl)[NMeA][dP][Dab][Cha][Val(3-OH)]SC[Dab]-NH2; thioether N-14), 240 nM; for `CC(C)C[C@@H]1NC(=O)[C@H](Cc2c[nH]c3ccccc23)NC(=O)[C@H](CC(=O)O)NC(=O)[C@H](Cc2cccc(C#N)c2)NC(=O)[C@H](Cc2ccncc2)NC(=O)CSC[C@@H](C(=O)N[C@@H](CCN)C(N)=O)NC(=O)[C@H](CO)NC(=O)[C@H](C(C)(C)O)NC(=O)[C@H](CC2CCCCC2)NC(=O)[C@H](CCN)NC(=O)[C@H]2CCCN2C(=O)[C@H](C)N(C)C(=O)[C@H](C(C)C)NC(=O)[C@H](Cc2ccc(-c3ccccc3)cc2)NC1=O` [Example 1183] ({CH2CO}-[4Pal][Phe(3-CN)]DWL[Bip]V[NMeA][dP][Dab][Cha][Val(3-OH)]SC[Dab]-NH2; thioether N-14), 40 nM. Next, `Cc1cccc(C[C@@H]2NC(=O)[C@H](CC(=O)O)NC(=O)[C@H](Cc3ccc(OCC(=O)O)cc3)NC(=O)[C@H](Cc3ccncc3)NC(=O)CSC[C@@H](C(=O)N[C@@H](CCN)C(N)=O)NC(=O)[C@H](CO)NC(=O)[C@H](C(C)(C)O)NC(=O)[C@H](CC3CCCCC3)NC(=O)[C@H](CCN)NC(=O)[C@H]3CCCN3C(=O)[C@H](C)N(C)C(=O)[C@H](C(C)C)NC(=O)[C@H](Cc3ccc(-c4ccccc4)cc3)NC(=O)[C@H](Cc3ccc(OCC(=O)O)cc3)NC2=O)c1` [Example 1184] ({CH2CO}-[4Pal]Y(Carboxymethyl)D[Phe(3-Me)]Y(Carboxymethyl)[Bip]V[NMeA][dP][Dab][Cha][Val(3-OH)]SC[Dab]-NH2; thioether N-14): 20 nM; `CC(C)C[C@@H]1NC(=O)[C@H](Cc2c[nH]c3ccccc23)NC(=O)[C@H](CC(=O)O)NC(=O)[C@H](Cc2ccc(OCC(=O)O)cc2)NC(=O)[C@H](Cc2ccncc2)NC(=O)CSC[C@@H](C(=O)N[C@@H](CCN)C(N)=O)NC(=O)[C@H](CO)NC(=O)[C@H](C(C)(C)O)NC(=O)[C@H](CC2CCCCC2)NC(=O)[C@H](CCN)NC(=O)[C@H]2CCCN2C(=O)[C@H](C)N(C)C(=O)[C@H](C(C)C)NC(=O)[C@H](Cc2ccc(-c3ccccc3)cc2)NC1=O` [Example 1185] ({CH2CO}-[4Pal]Y(Carboxymethyl)DWL[Bip]V[NMeA][dP][Dab][Cha][Val(3-OH)]SC[Dab]-NH2; thioether N-14): 30 nM; `CCCCN1CC(=O)N[C@@H](CCN)C(=O)N[C@@H](CC2CCCCC2)C(=O)N[C@@H](C(C)C)C(=O)N[C@@H](CO)C(=O)N[C@H](C(=O)N[C@@H](CCN)C(N)=O)CSCC(=O)N[C@@H]([C@@H](C)O)C(=O)N[C@@H](Cc2ccc(OCC(=O)O)cc2)C(=O)N[C@@H](CC(=O)O)C(=O)N[C@@H](Cc2cccc(C)c2)C(=O)N[C@@H](Cc2ccc(OCC(=O)O)cc2)C(=O)N[C@@H](Cc2ccc(-c3ccccc3)cc2)C(=O)N[C@@H](Cc2ccc(OCC(=O)O)cc2)C(=O)N(C)[C@@H](C)C1=O` [Example 1186] ({CH2CO}-TY(Carboxymethyl)D[Phe(3-Me)]Y(Carboxymethyl)[Bip]Y(Carboxymethyl)[NMeA][NBuGly][Dab][Cha]VSC[Dab]-NH2; thioether N-14): 380 nM. On to `CCCCN1CC(=O)N[C@@H](CCN)C(=O)N[C@@H](CC2CCCCC2)C(=O)N[C@@H](C(C)C)C(=O)N[C@@H](CO)C(=O)N[C@H](C(=O)N[C@@H](CCN)C(N)=O)CSCC(=O)N[C@@H](Cc2ccncc2)C(=O)N[C@@H](Cc2ccc(OCC(=O)O)cc2)C(=O)N[C@@H](CC(=O)O)C(=O)N[C@@H](Cc2cccc(C)c2)C(=O)N[C@@H](Cc2ccc(OCC(=O)O)cc2)C(=O)N[C@@H](Cc2ccc(-c3ccccc3)cc2)C(=O)N[C@@H](Cc2ccc(OCC(=O)O)cc2)C(=O)N(C)[C@@H](C)C1=O` [Example 1187] ({CH2CO}-[4Pal]Y(Carboxymethyl)D[Phe(3-Me)]Y(Carboxymethyl)[Bip]Y(Carboxymethyl)[NMeA][NBuGly][Dab][Cha]VSC[Dab]-NH2; thioether N-14), for which the half-maximal inhibitory concentration (IC50) worked out at 290 nM. For `CC(C)C[C@@H]1NC(=O)[C@H](Cc2c[nH]c3ccccc23)NC(=O)[C@H](CC(=O)O)NC(=O)[C@H](Cc2ccc(OCC(=O)O)cc2)NC(=O)[C@H]([C@@H](C)O)NC(=O)CSC[C@@H](C(=O)N[C@@H](CCN)C(N)=O)NC(=O)[C@H](CO)NC(=O)[C@H](C(C)(C)O)NC(=O)[C@H](CC2CCCCC2)NC(=O)[C@H](CCN)NC(=O)[C@H]2CCCCN2C(=O)[C@H]2CCCN2C(=O)[C@H](C(C)C)NC(=O)[C@H](Cc2ccc(-c3ccccc3)cc2)NC1=O` [Example 1188] ({CH2CO}-TY(Carboxymethyl)DWL[Bip]V[dP][dPip][Dab][Cha][Val(3-OH)]SC[Dab]-NH2; thioether N-14) the value was 50 nM; for `CC(C)C[C@@H]1NC(=O)[C@H](Cc2c[nH]c3ccccc23)NC(=O)[C@H](CC(=O)O)NC(=O)[C@H](Cc2ccc(C(=O)O)cc2)NC(=O)[C@H](Cc2ccncc2)NC(=O)CSC[C@@H](C(=O)N[C@@H](CCN)C(N)=O)NC(=O)[C@H](CO)NC(=O)[C@H](C(C)(C)O)NC(=O)[C@H](CC2CCCCC2)NC(=O)[C@H](CCN)NC(=O)[C@H]2CCCCN2C(=O)[C@H]2CCCN2C(=O)[C@H](C(C)C)NC(=O)[C@H](Cc2ccc(-c3ccccc3)cc2)NC1=O` [Example 1189] ({CH2CO}-[4Pal][Phe(4-COOH)]DWL[Bip]V[dP][dPip][Dab][Cha][Val(3-OH)]SC[Dab]-NH2; thioether N-14), 70 nM.

On to `Cc1cccc(C[C@@H]2NC(=O)[C@H](CC(=O)O)NC(=O)[C@H](Cc3ccc(OCC(=O)O)cc3)NC(=O)[C@H](CCCNC(=N)N)NC(=O)CSC[C@@H](C(=O)N[C@@H](CCN)C(N)=O)NC(=O)[C@H](CO)NC(=O)[C@H](C(C)(C)O)NC(=O)[C@H](CC3CCCCC3)NC(=O)[C@H](CCN)NC(=O)[C@H]3CCCCN3C(=O)[C@H]3CCCN3C(=O)[C@H](Cc3ccc(OCC(=O)O)cc3)NC(=O)[C@H](Cc3ccc(-c4ccccc4)cc3)NC(=O)[C@H](Cc3ccc(OCC(=O)O)cc3)NC2=O)c1` [Example 1190] ({CH2CO}-RY(Carboxymethyl)D[Phe(3-Me)]Y(Carboxymethyl)[Bip]Y(Carboxymethyl)[dP][dPip][Dab][Cha][Val(3-OH)]SC[Dab]-NH2; thioether N-14), for which the half-inhibitory concentration (IC50) came out at 550 nM. On to `CCCC[C@@H]1NC(=O)[C@H](C(C)C)NC(=O)[C@H](Cc2ccccc2)N(C)C(=O)[C@H](CC(=O)O)NC(=O)[C@H](CCC(=O)O)NC(=O)[C@H](Cc2ccc(-c3ccccc3)cc2)NC(=O)[C@H](C(C)C)NC(=O)[C@H](Cc2c[nH]c3ccccc23)NC(=O)[C@H](CC(=O)O)NC(=O)[C@H](Cc2ccc(O)cc2)NC(=O)[C@H](Cc2ccccc2)NC(=O)CSC[C@@H](C(=O)NCC(N)=O)NC(=O)[C@H](CCCNC(=N)N)NC(=O)[C@H](C(C)C)NC1=O` [Example 1191] ({CH2CO}-FYDWV[Bip]ED[NMeF]V[Nle]VRCG-NH2; thioether N-14), for which the IC50 came to 690 nM. On to `CCCC[C@@H]1NC(=O)[C@H](CCCCN)NC(=O)[C@H](Cc2ccccc2)N(C)C(=O)[C@H](CC(=O)O)NC(=O)[C@H](CCCNC(=N)N)NC(=O)[C@H](Cc2ccc(-c3ccccc3)cc2)NC(=O)[C@H](C(C)C)NC(=O)[C@H](Cc2c[nH]c3ccccc23)NC(=O)[C@H](CC(=O)O)NC(=O)[C@H](Cc2ccc(O)cc2)NC(=O)[C@H](Cc2ccccc2)NC(=O)CSC[C@@H](C(=O)NCC(N)=O)NC(=O)[C@H](CCCNC(=N)N)NC(=O)[C@H](C(C)C)NC1=O` [Example 1192] ({CH2CO}-FYDWV[Bip]RD[NMeF]K[Nle]VRCG-NH2; thioether N-14), for which the IC50 came to 920 nM. In the case of `CC(C)C[C@@H]1NC(=O)[C@H](Cc2c[nH]c3ccccc23)NC(=O)[C@H](CC(=O)O)NC(=O)[C@H](Cc2ccc(O)cc2)NC(=O)[C@H](Cc2ccccc2)NC(=O)CSC[C@@H](C(=O)N[C@@H](C)C(N)=O)NC(=O)[C@H](CO)NC(=O)[C@H](C(C)C)NC(=O)[C@H](CC(C)C)NC(=O)[C@H](CC(N)=O)NC(=O)[C@H]2CCCN2C(=O)[C@@H](CCN)NC(=O)[C@H](C(C)C)NC(=O)[C@H](Cc2ccc(-c3ccccc3)cc2)NC1=O` [Example 1195] ({CH2CO}-FYDWL[Bip]V[dDab][dP]NLVSCA-NH2; thioether N-14), the IC50 was determined as 370 nM.
